The text below walks through data of ChEMBL document CHEMBL3045547, “Synthesis, characterization and antimicrobial screening of hybrid molecules containing benzimidazole-pyrazole and pyridine nucleus” (2012).

Converted amounts (≈) assume the structure as drawn.

Format in all cases: functional
One assay deals with Pseudomonas aeruginosa. The assay is described as follows: Antimicrobial activity against Pseudomonas aeruginosa MTCC 1688 after 24 to 48 hr by serial broth dilution method.
A further assay has as its system Aspergillus niger. The assay is described as follows: Antimicrobial activity against Aspergillus niger MTCC 282 serial after 72 hr by broth dilution method. The conditions noted are these: MTCC 282, 72 h.
A further assay concerns Staphylococcus aureus. The assay is described as follows: Antimicrobial activity against Staphylococcus aureus MTCC 96 after 24 to 48 hr by serial broth dilution method.
In a further assay the test system is Aspergillus clavatus. The assay is described as follows: Antimicrobial activity against Aspergillus clavatus MTCC 1323 after 72 hr by serial broth dilution method. The conditions noted are these: MTCC 1323, 72 h.
For the next assay, the system named is Streptococcus pyogenes. The assay is described as follows: Antimicrobial activity against Streptococcus pyogenes MTCC 442 after 24 to 48 hr by serial broth dilution method.
The next assay relates to Escherichia coli. The assay is described as follows: Antimicrobial activity against Escherichia coli MTCC 443 after 24 to 48 hr by serial broth dilution method.
For the next assay, the system named is Candida albicans. The assay is described as follows: Antimicrobial activity against Candida albicans MTCC 227 after 72 hr by serial broth dilution method. The conditions noted are these: MTCC 227, 72 h.

Regarding `Cc1ccc(C2CC(c3nc4ccccc4[nH]3)=NN2C(=O)c2ccncc2)cc1` (stereo not given), the MIC against Pseudomonas aeruginosa was 50 µg/mL (≈ 131 µM); against Aspergillus niger it was 1000 µg/mL (≈ 2620 µM); against Staphylococcus aureus, 100 µg/mL (≈ 262 µM); against Aspergillus clavatus, 1000 µg/mL (≈ 2620 µM); in the assay with Streptococcus pyogenes it was 250 µg/mL (≈ 655 µM); in the assay on Escherichia coli, 25 µg/mL (≈ 65.5 µM). For the same molecule, 1000 µg/mL (≈ 2620 µM) was the least that counted as inhibitory against Candida albicans (MIC).

`COc1ccc(C2CC(c3nc4ccccc4[nH]3)=NN2C(=O)c2ccncc2)cc1` (stereo not given): the MIC in the assay on Pseudomonas aeruginosa was determined as 50 µg/mL (≈ 126 µM); against Aspergillus niger it was 200 µg/mL (≈ 503 µM); in the assay with Staphylococcus aureus it was 125 µg/mL (≈ 315 µM); in the assay on Aspergillus clavatus it was 500 µg/mL (≈ 1260 µM); against Streptococcus pyogenes, 200 µg/mL (≈ 503 µM); in the assay with Escherichia coli, 100 µg/mL (≈ 252 µM). This molecule displayed an MIC against Candida albicans of 500 µg/mL (≈ 1260 µM).

For the molecule `O=C(c1ccncc1)N1N=C(c2nc3ccccc3[nH]2)CC1c1ccc(Cl)cc1` (stereo not given), the MIC with Pseudomonas aeruginosa worked out at 500 µg/mL (≈ 1240 µM); in the assay on Aspergillus niger it was 1000 µg/mL (≈ 2490 µM); with Staphylococcus aureus, 250 µg/mL (≈ 622 µM); against Aspergillus clavatus it was 1000 µg/mL (≈ 2490 µM); against Streptococcus pyogenes it was 250 µg/mL (≈ 622 µM); in the assay on Escherichia coli, 500 µg/mL (≈ 1240 µM). In the assay with Candida albicans, this molecule returned an MIC of 1000 µg/mL (≈ 2490 µM).

On to `O=C(c1ccncc1)N1N=C(c2nc3ccccc3[nH]2)CC1c1ccc(Br)cc1` (stereo not given), for which the MIC against Pseudomonas aeruginosa amounted to 250 µg/mL (≈ 560 µM); with Aspergillus niger, 1000 µg/mL (≈ 2240 µM); in the assay on Staphylococcus aureus, 250 µg/mL (≈ 560 µM); with Aspergillus clavatus, 1000 µg/mL (≈ 2240 µM); against Streptococcus pyogenes, 250 µg/mL (≈ 560 µM); against Escherichia coli it was 250 µg/mL (≈ 560 µM). Also, in the assay with Candida albicans, the MIC stood at 1000 µg/mL (≈ 2240 µM).

Consider `O=C(c1ccncc1)N1N=C(c2nc3ccccc3[nH]2)CC1c1ccc(F)cc1` (stereo not given), for which the MIC with Pseudomonas aeruginosa worked out at 100 µg/mL (≈ 259 µM); in the assay on Aspergillus niger, 200 µg/mL (≈ 519 µM); in the assay on Staphylococcus aureus it was 500 µg/mL (≈ 1300 µM); in the assay on Aspergillus clavatus it was 500 µg/mL (≈ 1300 µM); in the assay with Streptococcus pyogenes it was 100 µg/mL (≈ 259 µM); in the assay with Escherichia coli, 500 µg/mL (≈ 1300 µM). In the assay with Candida albicans, this molecule yielded an MIC of 500 µg/mL (≈ 1300 µM).

On to `O=C(c1ccncc1)N1N=C(c2nc3ccccc3[nH]2)CC1c1ccc([N+](=O)[O-])cc1` (stereo not given), for which the MIC is 500 µg/mL (≈ 1210 µM) in the assay with Pseudomonas aeruginosa; 200 µg/mL (≈ 485 µM) against Aspergillus niger; 500 µg/mL (≈ 1210 µM) with Staphylococcus aureus; 100 µg/mL (≈ 242 µM) with Aspergillus clavatus; 500 µg/mL (≈ 1210 µM) in the assay on Streptococcus pyogenes; 50 µg/mL (≈ 121 µM) against Escherichia coli. The MIC against Candida albicans amounted to 500 µg/mL (≈ 1210 µM).

Consider `CN(C)c1ccc(C2CC(c3nc4ccccc4[nH]3)=NN2C(=O)c2ccncc2)cc1` (stereo not given), for which the MIC in the assay on Pseudomonas aeruginosa stood at 100 µg/mL (≈ 244 µM); against Aspergillus niger, 25 µg/mL (≈ 60.9 µM); in the assay on Staphylococcus aureus, 250 µg/mL (≈ 609 µM); in the assay on Aspergillus clavatus it was 100 µg/mL (≈ 244 µM); with Streptococcus pyogenes, 250 µg/mL (≈ 609 µM); against Escherichia coli, 250 µg/mL (≈ 609 µM). Besides, the MIC against Candida albicans worked out at 1000 µg/mL (≈ 2440 µM).

For `O=C(c1ccncc1)N1N=C(c2nc3ccccc3[nH]2)CC1c1ccccc1` (stereo not given), the minimal inhibitory concentration (MIC) with Pseudomonas aeruginosa came out at 500 µg/mL (≈ 1360 µM); in the assay on Aspergillus niger it was 200 µg/mL (≈ 544 µM); in the assay on Staphylococcus aureus it was 250 µg/mL (≈ 680 µM); in the assay on Aspergillus clavatus it was 500 µg/mL (≈ 1360 µM); against Streptococcus pyogenes, 100 µg/mL (≈ 272 µM); in the assay with Escherichia coli, 250 µg/mL (≈ 680 µM). The molecule further had an MIC against Candida albicans of 250 µg/mL (≈ 680 µM).

Take `O=C(c1ccncc1)N1N=C(c2nc3ccccc3[nH]2)CC1c1ccccc1Cl` (stereo not given): the MIC against Pseudomonas aeruginosa is 500 µg/mL (≈ 1240 µM); in the assay with Aspergillus niger, 1000 µg/mL (≈ 2490 µM); against Staphylococcus aureus, 250 µg/mL (≈ 622 µM); against Aspergillus clavatus, 1000 µg/mL (≈ 2490 µM); with Streptococcus pyogenes, 500 µg/mL (≈ 1240 µM); in the assay on Escherichia coli, 100 µg/mL (≈ 249 µM). The molecule further gave an MIC against Candida albicans of 500 µg/mL (≈ 1240 µM).

`O=C(c1ccncc1)N1N=C(c2nc3ccccc3[nH]2)CC1c1ccccc1O` (stereo not given): the MIC was 100 µg/mL (≈ 261 µM) in the assay on Pseudomonas aeruginosa; 1000 µg/mL (≈ 2610 µM) in the assay on Aspergillus niger; 125 µg/mL (≈ 326 µM) in the assay with Staphylococcus aureus; 100 µg/mL (≈ 261 µM) with Aspergillus clavatus; 100 µg/mL (≈ 261 µM) in the assay with Streptococcus pyogenes; 500 µg/mL (≈ 1300 µM) against Escherichia coli. The molecule also yielded an MIC against Candida albicans of 100 µg/mL (≈ 261 µM).

For the molecule `O=C(c1ccncc1)N1N=C(c2nc3ccccc3[nH]2)CC1c1cccc(O)c1` (stereo not given), the MIC against Pseudomonas aeruginosa turned out to be 25 µg/mL (≈ 65.2 µM); against Aspergillus niger it was 100 µg/mL (≈ 261 µM); in the assay with Staphylococcus aureus it was 100 µg/mL (≈ 261 µM); in the assay on Aspergillus clavatus, 500 µg/mL (≈ 1300 µM); with Streptococcus pyogenes, 50 µg/mL (≈ 130 µM); against Escherichia coli, 100 µg/mL (≈ 261 µM). The molecule further displayed an MIC against Candida albicans of 500 µg/mL (≈ 1300 µM).

For the molecule `O=C(c1ccncc1)N1N=C(c2nc3ccccc3[nH]2)CC1c1cccc([N+](=O)[O-])c1` (stereo not given), the MIC against Pseudomonas aeruginosa is 100 µg/mL (≈ 242 µM); with Aspergillus niger, 200 µg/mL (≈ 485 µM); against Staphylococcus aureus, 500 µg/mL (≈ 1210 µM); in the assay on Aspergillus clavatus it was 100 µg/mL (≈ 242 µM); against Streptococcus pyogenes, 500 µg/mL (≈ 1210 µM); in the assay on Escherichia coli, 100 µg/mL (≈ 242 µM). In the assay on Candida albicans, this molecule showed an MIC of 500 µg/mL (≈ 1210 µM).

With `COc1cc(C2CC(c3nc4ccccc4[nH]3)=NN2C(=O)c2ccncc2)ccc1O` (stereo not given), the MIC in the assay with Pseudomonas aeruginosa amounted to 500 µg/mL (≈ 1210 µM); against Aspergillus niger, 100 µg/mL (≈ 242 µM); against Staphylococcus aureus, 100 µg/mL (≈ 242 µM); in the assay with Aspergillus clavatus, 200 µg/mL (≈ 484 µM); against Streptococcus pyogenes, 100 µg/mL (≈ 242 µM); against Escherichia coli, 250 µg/mL (≈ 605 µM). For the same molecule, the MIC with Candida albicans is 500 µg/mL (≈ 1210 µM).

In the case of `O=C(c1ccncc1)N1N=C(c2nc3ccccc3[nH]2)CC1c1ccc(O)cc1` (stereo not given), the MIC is 250 µg/mL (≈ 652 µM) in the assay with Pseudomonas aeruginosa; 1000 µg/mL (≈ 2610 µM) against Aspergillus niger; 250 µg/mL (≈ 652 µM) in the assay with Staphylococcus aureus; 1000 µg/mL (≈ 2610 µM) in the assay with Aspergillus clavatus; 250 µg/mL (≈ 652 µM) in the assay on Streptococcus pyogenes; 25 µg/mL (≈ 65.2 µM) against Escherichia coli. Also, the MIC against Candida albicans stood at 100 µg/mL (≈ 261 µM).

Consider `CC1(C)S[C@@H]2[C@H](NC(=O)[C@H](N)c3ccccc3)C(=O)N2[C@H]1C(=O)O` [AMPICILLIN], for which the MIC amounted to 100 µg/mL (≈ 286 µM) against Pseudomonas aeruginosa, 250 µg/mL (≈ 715 µM) against Staphylococcus aureus, 100 µg/mL (≈ 286 µM) against Streptococcus pyogenes and 100 µg/mL (≈ 286 µM) in the assay with Escherichia coli.

With `COC1=CC(=O)C[C@@H](C)[C@]12Oc1c(Cl)c(OC)cc(OC)c1C2=O` [GRISEOFULVIN], the figures for the MIC with Aspergillus niger, against Aspergillus clavatus and in the assay on Candida albicans were 100 µg/mL (≈ 283 µM), 100 µg/mL (≈ 283 µM) and 500 µg/mL (≈ 1420 µM), respectively.
